One block for each molecule: values may come before it.
Target: JNK3 (Homo sapiens, UniProt P53779)
Assay: Measurement of JNK3 enzyme activity
Format: biochemical
Description: Experimental Example 1. Measurement of JNK3 Enzyme Activity

Chain of JNK3 (P53779 whole entry, species assumed): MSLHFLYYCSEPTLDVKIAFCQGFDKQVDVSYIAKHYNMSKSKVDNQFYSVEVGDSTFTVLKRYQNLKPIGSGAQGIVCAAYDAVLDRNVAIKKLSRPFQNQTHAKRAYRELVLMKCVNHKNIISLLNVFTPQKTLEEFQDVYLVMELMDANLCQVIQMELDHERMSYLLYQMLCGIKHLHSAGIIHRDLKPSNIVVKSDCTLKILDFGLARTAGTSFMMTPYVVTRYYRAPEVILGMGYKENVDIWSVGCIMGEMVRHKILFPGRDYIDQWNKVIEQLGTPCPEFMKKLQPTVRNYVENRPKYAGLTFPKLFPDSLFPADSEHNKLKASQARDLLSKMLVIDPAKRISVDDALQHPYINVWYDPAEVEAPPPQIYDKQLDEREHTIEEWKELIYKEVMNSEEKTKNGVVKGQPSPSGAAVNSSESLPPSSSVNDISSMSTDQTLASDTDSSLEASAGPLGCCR

SMILES: CCOC(=O)C1Cc2nc(-c3ccc(F)c(C(F)(F)F)c3)n(-c3ccnc(N[C@H]4CCN(C(=O)C5CC5)C4)n3)c2C1 (stereo partly drawn) [Compound 16a, ethyl 1-(2-(((S)-1-(cyclopropanecarbonyl)pyrrolidine-3-yl)amino)pyrimidin-4-yl)-2-(4-fluoro-3-(trifluoromethyl)phenyl)-1,4,5,6-tetracyclopenta[d]imidazol-5-carboxylate]
IC50 (Table 1): > 1000 nM

SMILES: CCOC(=O)C1Cc2nc(-c3ccc(Cl)c(Cl)c3)n(-c3ccnc(N[C@H]4CCN(C(=O)C5CC5)C4)n3)c2C1 (stereo partly drawn) [Compound 16b, ethyl 1-(2-(((S)-1-(cyclopropanecarbonyl)pyrrolidine-3-yl)amino)pyrimidin-4-yl)-2-(3,4-dichlorophenyl)-1,4,5,6-tetracyclopenta[d]imidazol-5-carboxylate]
IC50 (Table 2): < 30 nM

SMILES: CCOC(=O)C1Cc2nc(-c3ccc4ccccc4c3)n(-c3ccnc(N[C@H]4CCN(C(=O)C5CC5)C4)n3)c2C1 (stereo partly drawn) [Compound 16c, ethyl 1-(2-(((S)-1-(cyclopropanecarbonyl)pyrrolidine-3-yl)amino)pyrimidin-4-yl)-2-(naphthalen-2-yl)-1,4,5,6-tetracyclopenta[d]imidazol-5-carboxylate]
IC50 (Table 3): < 30 nM

SMILES: CCOC(=O)C1Cc2nc(-c3ccc4c(c3)OCO4)n(-c3ccnc(N[C@H]4CCN(C(=O)C5CC5)C4)n3)c2C1 (stereo partly drawn) [Compound 16d, ethyl 2-(benzo[d][1,3]dioxol-5-yl)-1-(2-(((S)-1-(cyclopropanecarbonyl)pyrrolidine-3-yl)amino)pyrimidin-4-yl)-1,4,5,6-tetracyclopenta[d]imidazol-5-carboxylate]
IC50 (Table 4): > 1000 nM

SMILES: CCOC(=O)C1Cc2nc(-c3ccc4c(c3)CCO4)n(-c3ccnc(N[C@H]4CCN(C(=O)C5CC5)C4)n3)c2C1 (stereo partly drawn) [Compound 16e, ethyl 1-(2-(((S)-1-(cyclopropanecarbonyl)pyrrolidine-3-yl)amino)pyrimidin-4-yl)-2-(2,3-dihydrobenzofuran-5-yl)-1,4,5,6-tetracyclopenta[d]imidazol-5-carboxylate]
IC50 (Table 5): > 1000 nM

SMILES: CCOC(=O)C1Cc2nc(-c3ccc(F)c(C(F)(F)F)c3)n(-c3ccnc(N[C@@H]4CCN(C(=O)C5CC5)C4)n3)c2C1 (stereo partly drawn) [Compound 17a, ethyl 1-(2-(((R)-1-(cyclopropanecarbonyl)pyrrolidine-3-yl)amino)pyrimidin-4-yl)-2-(4-fluoro-3-(trifluoromethyl)phenyl)-1,4,5,6-tetracyclopenta[d]imidazol-5-carboxylate]
IC50 (Table 1): < 30 nM

SMILES: CCOC(=O)C1Cc2nc(-c3ccc(Cl)c(Cl)c3)n(-c3ccnc(N[C@@H]4CCN(C(=O)C5CC5)C4)n3)c2C1 (stereo partly drawn) [Compound 17b, ethyl 1-(2-(((R)-1-(cyclopropanecarbonyl)pyrrolidine-3-yl)amino)pyrimidin-4-yl)-2-(3,4-dichlorophenyl)-1,4,5,6-tetracyclopenta[d]imidazol-5-carboxylate]
IC50 (Table 2): < 30 nM

SMILES: CCOC(=O)C1Cc2nc(-c3ccc4ccccc4c3)n(-c3ccnc(N[C@@H]4CCN(C(=O)C5CC5)C4)n3)c2C1 (stereo partly drawn) [Compound 17c, ethyl 1-(2-(((R)-1-(cyclopropanecarbonyl)pyrrolidine-3-yl)amino)pyrimidin-4-yl)-2-(naphthalen-2-yl)-1,4,5,6-tetracyclopenta[d]imidazol-5-carboxylate]
IC50 (Table 3): < 30 nM

SMILES: CCOC(=O)C1Cc2nc(-c3ccc4c(c3)OCO4)n(-c3ccnc(N[C@@H]4CCN(C(=O)C5CC5)C4)n3)c2C1 (stereo partly drawn) [Compound 17d, ethyl 2-(benzo[d][1,3]dioxol-5-yl)-1-(2-(((R)-1-(cyclopropanecarbonyl)pyrrolidine-3-yl)amino)pyrimidin-4-yl)-1,4,5,6-tetracyclopenta[d]imidazol-5-carboxylate]
IC50 (Table 4): < 30 nM

SMILES: CCOC(=O)C1Cc2nc(-c3ccc4c(c3)CCO4)n(-c3ccnc(N[C@@H]4CCN(C(=O)C5CC5)C4)n3)c2C1 (stereo partly drawn) [Compound 17e, ethyl 1-(2-(((R)-1-(cyclopropanecarbonyl)pyrrolidine-3-yl)amino)pyrimidin-4-yl)-2-(2,3-dihydrobenzofuran-5-yl)-1,4,5,6-tetracyclopenta[d]imidazol-5-carboxylate]
IC50 (Table 5): < 30 nM

SMILES: CCOC(=O)C1Cc2nc(-c3ccc(Cl)c(Cl)c3)n(-c3ccnc(N[C@H]4CCCN(C(=O)C5CC5)C4)n3)c2C1 (stereo partly drawn) [Compound 18b, ethyl 1-(2-(((S)-1-(cyclopropanecarbonyl)piperidin-3-yl)amino)pyrimidin-4-yl)-2-(3,4-dichlorophenyl)-1,4,5,6-tetracyclopenta[d]imidazol-5-carboxylate]
IC50 (Table 2): < 30 nM

SMILES: CCOC(=O)C1Cc2nc(-c3ccc(Cl)c(Cl)c3)n(-c3ccnc(N[C@@H]4CCCN(C(=O)C5CC5)C4)n3)c2C1 (stereo partly drawn) [Compound 19b, ethyl 1-(2-(((R)-1-(cyclopropanecarbonyl)piperidin-3-yl)amino)pyrimidin-4-yl)-2-(3,4-dichlorophenyl)-1,4,5,6-tetracyclopenta[d]imidazol-5-carboxylate]
IC50 (Table 2): < 30 nM

Continued, values first:

IC50 (Table 1): < 30 nM
SMILES: NC(=O)C1Cc2nc(-c3ccc(F)c(C(F)(F)F)c3)n(-c3ccnc(NC4CCCN(C(=O)C5CC5)C4)n3)c2C1 (single isomer, unassigned) [Compound 22a]

IC50 (Table 1): > 1000 nM
SMILES: NC(=O)C1Cc2nc(-c3ccc(F)c(C(F)(F)F)c3)n(-c3ccnc(NC4CCCN(C(=O)C5CC5)C4)n3)c2C1 (single isomer, unassigned) [Compound 23a]

IC50 (Table 4): > 1000 nM
SMILES: CNC(=O)C1Cc2nc(-c3ccc4c(c3)OCO4)n(-c3ccnc(NC4CCN(C(=O)C5CC5)C4)n3)c2C1 (single isomer, unassigned) [Compound 24d]

IC50 (Table 1): < 30 nM
SMILES: CNC(=O)C1Cc2nc(-c3ccc(F)c(C(F)(F)F)c3)n(-c3ccnc(NC4CCCN(C(=O)C5CC5)C4)n3)c2C1 (single isomer, unassigned) [Compound 26a]

IC50 (Table 1): > 1000 nM
SMILES: CNC(=O)C1Cc2nc(-c3ccc(F)c(C(F)(F)F)c3)n(-c3ccnc(NC4CCCN(C(=O)C5CC5)C4)n3)c2C1 (single isomer, unassigned) [Compound 27a]

IC50 (Table 1): < 30 nM
SMILES: CCOC(=O)C1Cc2nc(-c3ccc(F)c(C(F)(F)F)c3)n(-c3ccnc(N[C@H]4CCCN(C(=O)C5CC5)C4)n3)c2C1 (stereo partly drawn) [Compound 18a, ethyl 1-(2-(((S)-1-(cyclopropanecarbonyl)piperidin-3-yl)amino)pyrimidin-4-yl)-2-(4-fluoro-3-(trifluoromethyl)phenyl)-1,4,5,6-tetracyclopenta[d]imidazol-5-carboxylate]

IC50 (Table 3): < 30 nM
SMILES: CCOC(=O)C1Cc2nc(-c3ccc4ccccc4c3)n(-c3ccnc(N[C@H]4CCCN(C(=O)C5CC5)C4)n3)c2C1 (stereo partly drawn) [Compound 18c, ethyl 1-(2-(((S)-1-(cyclopropanecarbonyl)piperidin-3-yl)amino)pyrimidin-4-yl)-2-(naphthalen-2-yl)-1,4,5,6-tetracyclopenta[d]imidazol-5-carboxylate]

IC50 (Table 4): < 30 nM
SMILES: CCOC(=O)C1Cc2nc(-c3ccc4c(c3)OCO4)n(-c3ccnc(N[C@H]4CCCN(C(=O)C5CC5)C4)n3)c2C1 (stereo partly drawn) [Compound 18d, ethyl 2-(benzo[d][1,3]dioxol-5-yl)-1-(2-(((S)-1-(cyclopropanecarbonyl)piperidin-3-yl)amino)pyrimidin-4-yl)-1,4,5,6-tetracyclopenta[d]imidazol-5-carboxylate]

IC50 (Table 5): < 30 nM
SMILES: CCOC(=O)C1Cc2nc(-c3ccc4c(c3)CCO4)n(-c3ccnc(N[C@H]4CCCN(C(=O)C5CC5)C4)n3)c2C1 (stereo partly drawn) [Compound 18e, ethyl 1-(2-(((S)-1-(cyclopropanecarbonyl)piperidin-3-yl)amino)pyrimidin-4-yl)-2-(2,3-dihydrobenzofuran-5-yl)-1,4,5,6-tetracyclopenta[d]imidazol-5-carboxylate]

IC50 (Table 1): < 30 nM
SMILES: CCOC(=O)C1Cc2nc(-c3ccc(F)c(C(F)(F)F)c3)n(-c3ccnc(N[C@@H]4CCCN(C(=O)C5CC5)C4)n3)c2C1 (stereo partly drawn) [Compound 19a, ethyl 1-(2-(((R)-1-(cyclopropanecarbonyl)piperidin-3-yl)amino)pyrimidin-4-yl)-2-(4-fluoro-3-(trifluoromethyl)phenyl)-1,4,5,6-tetracyclopenta[d]imidazol-5-carboxylate]

IC50 (Table 3): < 30 nM
SMILES: CCOC(=O)C1Cc2nc(-c3ccc4ccccc4c3)n(-c3ccnc(N[C@@H]4CCCN(C(=O)C5CC5)C4)n3)c2C1 (stereo partly drawn) [Compound 19c, ethyl 1-(2-(((R)-1-(cyclopropanecarbonyl)piperidin-3-yl)amino)pyrimidin-4-yl)-2-(naphthalen-2-yl)-1,4,5,6-tetracyclopenta[d]imidazol-5-carboxylate]

IC50 (Table 4): < 30 nM
SMILES: CCOC(=O)C1Cc2nc(-c3ccc4c(c3)OCO4)n(-c3ccnc(N[C@@H]4CCCN(C(=O)C5CC5)C4)n3)c2C1 (stereo partly drawn) [Compound 19d, ethyl 2-(benzo[d][1,3]dioxol-5-yl)-1-(2-(((R)-1-(cyclopropanecarbonyl)piperidin-3-yl)amino)pyrimidin-4-yl)-1,4,5,6-tetracyclopenta[d]imidazol-5-carboxylate]

IC50 (Table 5): < 30 nM
SMILES: CCOC(=O)C1Cc2nc(-c3ccc4c(c3)CCO4)n(-c3ccnc(N[C@@H]4CCCN(C(=O)C5CC5)C4)n3)c2C1 (stereo partly drawn) [Compound 19e, ethyl 1-(2-(((R)-1-(cyclopropanecarbonyl)piperidin-3-yl)amino)pyrimidin-4-yl)-2-(2,3-dihydrobenzofuran-5-yl)-1,4,5,6-tetracyclopenta[d]imidazol-5-carboxylate]

IC50 (Table 1): > 1000 nM
SMILES: NC(=O)C1Cc2nc(-c3ccc(F)c(C(F)(F)F)c3)n(-c3ccnc(N[C@H]4CCN(C(=O)C5CC5)C4)n3)c2C1 (stereo partly drawn) [Compound 20a, 1-(2-(((S)-1-(cyclopropanecarbonyl)pyrrolidine-3-yl)amino)pyrimidin-4-yl)-2-(4-fluoro-3-(trifluoromethyl)phenyl)-1,4,5,6-tetracyclopenta[d]imidazol-5-carboxamide]

IC50 (Table 3): < 30 nM
SMILES: NC(=O)C1Cc2nc(-c3ccc4ccccc4c3)n(-c3ccnc(N[C@H]4CCN(C(=O)C5CC5)C4)n3)c2C1 (stereo partly drawn) [Compound 20c, 1-(2-(((S)-1-(cyclopropanecarbonyl)pyrrolidine-3-yl)amino)pyrimidin-4-yl)-2-(naphthalen-2-yl)-1,4,5,6-tetracyclopenta[d]imidazol-5-carboxamide]

IC50 (Table 4): > 1000 nM
SMILES: NC(=O)C1Cc2nc(-c3ccc4c(c3)OCO4)n(-c3ccnc(N[C@H]4CCN(C(=O)C5CC5)C4)n3)c2C1 (stereo partly drawn) [Compound 20d, 2-(benzo[d][1,3]dioxol-5-yl)-1-(2-(((S)-1-(cyclopropanecarbonyl)pyrrolidine-3-yl)amino)pyrimidin-4-yl)-1,4,5,6-tetracyclopenta[d]imidazol-5-carboxamide]

From patent US20240299386A1, “Novel imidazole derivatives having protein kinase inhibitory activity and uses thereof” (INDUSTRY-UNIVERSITY COOPERATION FOUNDATION HANYANG …, priority 2021, published 2024)
